# Laboratory results from patent publication US12121614B2, “Delayed release composition for peroral administration” (VICORE PHARMA AB, priority 2020, dated 2024).
# Several values for one entry are separate records, joined by “and”; a condition that tells them apart may be missing. Equal entries are not always repeated. Where two headings read alike, the source gives them in different places.
# Experiments:
# [1] = Phase I clinical trial, food effect part: pharmacokinetics of C21 fed vs fasted; format: in vivo, human; conditions: for AUC(0-t) / AUC(0-inf) / Cmax / Vd/F / half-life / Tmax: both sexes, human, plasma; for Tmax: read-out: tmax, Median
# Procedure: In addition, the effect of food on the pharmacokinetics (PK) of C21 was investigated in an open label manner in 10 male and female subjects at a single oral dose of 75 mg.
# Subjects were to receive two single doses of 75 mg of C21 at least 3 days apart in a randomised fashion either in fasted or in fed state. A Food and Drug Administration (FDA)-recommended high-fat breakfast was used to investigate maximum effects.
# In the food effect part of the study, the subjects' ages ranged from 22 to 44 years with a median age of 36.0 years. Most of the subjects were Caucasian (9 (90.0% of) subjects) and male (8 (80.0% of) subjects). The mean (SD) BMI of overall subjects was 23.96 (2.223) kg/m^2.
# C21 sodium salt as a pre-frozen oral solution (comprising 2.5 mg/mL C21 sodium salt sodium salt dissolved in an aqueous carbonate buffer) with a composition as shown in Table 1 below.
# Plasma concentrations below the lower limit of quantification (LLOQ) were presented as below the lower limit of quantification (BLQ). Plasma concentrations for C21 were summarised by study part, dose cohort and nominal time point.
# Pharmacokinetic parameters were calculated by non-compartmental analysis methods from the concentration-time data using Phoenix® WinNonlin® (Version 8.0) or higher following these guidelines: • Actual sampling times relative to dosing rather than nominal times were used in the calculation of all derived pharmacokinetic parameters. • There was no imputation of missing data. • Any subjects with missing concentration data were included in the PK analysis set provided that at least Cmax and AUC(0-t) could be reliably calculated.
# All BLQ values pre-dose and in the absorption phase prior to the first quantifiable concentration were substituted by zeros. Single BLQs that fell between two evaluable concentrations were substituted by missing, before the calculation of the PK variables. Consecutive BLQs that fell between evaluable concentrations were substituted by zero, before the calculation of the PK variables. Terminal BLQ values were disregarded.
# Bioequivalence of PK parameters from the open label food effect arm were determined by constructing 90% confidence intervals around the estimated difference between the Test and Reference treatments using a mixed effects model based on natural log transformed data. The mixed effects model was implemented using SAS Proc Mixed, with REML estimation method and Kenward-Roger degrees of freedom algorithm.
# Natural logarithm transformed AUC(0-inf) (if data permitted), AUC(0-24) and Cmax were analysed using a mixed effects model with sequence, period and treatment as fixed effects and subject within sequence as a random effect. Estimates of the mean differences (Test-Reference) and corresponding 90% confidence intervals were obtained from the model. The estimated mean differences and 90% confidence intervals for the differences were exponentiated to provide estimates of the ratio of geometric means (Test/Reference) and 90% confidence intervals for the ratios. C21 in the fasted state is the Reference treatment and C21 in the fed state is the Test treatment.
# The comparisons assessing the food effect (bioequivalence) were used to assess the effect of food on the rate and extent of absorption of C21 administered under fasted and fed conditions with estimates of the mean differences as well as corresponding 90% confidence intervals being presented.
# The model is a mixed analysis of variance (ANOVA) model with a fixed term for sequence, period, treatment, and a random effect for subject within sequence.
# [2] = Dissolution studies of C21 sodium salt in buffers of different pH; format: physicochemical; conditions: Zwitterion formed at intermediated pHs; conclusion from experiments (A)-(E)
# Procedure: 50.7 mg of C21 sodium salt (Ardena, Riga, Latvia) was added to 900 mL of 0.09M carbonate buffer (pH 8.95) at a temperature of 37±3° C. with stirring. […] After 15 minutes of stirring, 2M acetic acid solution was added dropwise to provide a pH of 4.52. Evolution CO2 was noted. […] After additional stirring for a further 1.5 hours, 1M NaOH was added to increase pH to 6.8.
# 51.2 mg of C21 sodium salt was added to 900 mL of acetate buffer (pH 4.4) at the same temperature with stirring. […] After stirring for 1 hour, 1M NaOH solution was added dropwise to increase the pH to 7.2.
# 53.2 mg of C21 sodium salt was added to 900 mL 0.1M of HCl buffer (pH 1.0) at the same temperature with stirring. […] After 20 minutes of stirring, 1M NaOH solution was added dropwise to increase the pH to 4.5.
# 51.0 mg of C21 sodium salt was added to 900 mL of 0.1M citrate buffer (pH 4.42) at the same temperature with stirring. The added compound formed a thin slurry. It seemed that nothing had dissolved.
# 50.8 mg of C21 sodium salt was added to 900 mL of an acetate buffer (pH 4.49) at the same temperature. […] After stirring for 1 hour, a 1M NaOH solution was added dropwise to increase the pH to 6.8.
# [3] = 75 mg, fed (Test) vs fasted (Reference)
# [4] = 75 mg, higher for the fed treatment
# [5] = single oral dose 75 mg, Fasted, N = 9
# [6] = single oral dose 75 mg, Fed, N = 10
structure (smiles),measurement,setting,value
"CCCCOC(=O)NS(=O)(=O)c1sc(CC(C)C)cc1-c1ccc(Cn2ccnc2)cc1 [C21, N-butyloxycarbonyl-3-(4-imidazol-1-ylmethylphenyl)-5-iso-butylthiophene-2-sulfonamide]","AUC(0-24), Geometric Mean Ratio (Fed:Fasted)",[1]; [3],0.45 and 0.449
same,"AUC(0-inf), Geometric Mean Ratio (Fed:Fasted)",[1]; [3],0.45 and 0.449
same,"Cmax, Geometric Mean Ratio (Fed:Fasted)",[1]; [3],0.16 and 0.155
same,"CL/F, fed treatment compared to fasted treatment",[1]; [4],approximately 2 fold
same,"VZ/F, fed treatment compared to fasted treatment",[1]; [4],3 fold
same,food effect on pharmacokinetics,[1]; Phase I clinical trial in healthy subjects,a pronounced food effect was observed
same,AUC(0-t),"[1]; oral, 75 mg, Fasted (N = 9), mixed ANOVA model, read-out: AUC(0-24), Geometric Mean (95% CI), mixed effects model",1710 ng·h/mL
same,AUC(0-inf),"[1]; oral, 75 mg, Fasted (N = 9), mixed ANOVA model, read-out: AUC(0-inf), Geometric Mean (95% CI), mixed effects model",1710 ng·h/mL
same,Cmax,"[1]; oral, 75 mg, Fasted (N = 9), mixed ANOVA model, read-out: Cmax, Geometric Mean (95% CI), mixed effects model",1700 ng/mL
same,AUC(0-t),"[1]; oral, 75 mg, Fed (N = 10), mixed ANOVA model, read-out: AUC(0-24), Geometric Mean (95% CI), mixed effects model",768 ng·h/mL
same,AUC(0-inf),"[1]; oral, 75 mg, Fed (N = 10), mixed ANOVA model, read-out: AUC(0-inf), Geometric Mean (95% CI), mixed effects model",769 ng·h/mL
same,Cmax,"[1]; oral, 75 mg, Fed (N = 10), mixed ANOVA model, read-out: Cmax, Geometric Mean (95% CI), mixed effects model",263 ng/mL
same,Cmax,"[1]; po, 75 mg, single oral dose 75 mg, Fasted, N = 9, plasma, read-out: Cmax, Arithmetic Mean",1810 ng/mL
same,Cmax,"[1]; po, 75 mg, single oral dose 75 mg, Fasted, N = 9, plasma, read-out: Cmax, Geometric Mean",1710 ng/mL
same,AUC(0-t),"[1]; po, 75 mg, single oral dose 75 mg, Fasted, N = 9, read-out: AUC(0-6), Arithmetic Mean",1850 ng·h/mL
same,AUC(0-t),"[1]; po, 75 mg, single oral dose 75 mg, Fasted, N = 9, read-out: AUC(0-6), Geometric Mean",1760 ng·h/mL
same,AUC(0-t),"[1]; po, 75 mg, single oral dose 75 mg, Fasted, N = 9, read-out: AUC(0-12), Arithmetic Mean",1860 ng·h/mL
same,AUC(0-t),"[1]; po, 75 mg, single oral dose 75 mg, Fasted, N = 9, read-out: AUC(0-12), Geometric Mean",1770 ng·h/mL
same,AUC(0-t),"[1]; po, 75 mg, single oral dose 75 mg, Fasted, N = 9, read-out: AUC(0-24), Arithmetic Mean",1860 ng·h/mL
same,AUC(0-inf),"[1]; po, 75 mg, single oral dose 75 mg, Fasted, N = 9, read-out: AUC(0-inf), Arithmetic Mean",1860 ng·h/mL
same,AUC(0-inf),"[1]; po, 75 mg, single oral dose 75 mg, Fasted, N = 9, read-out: AUC(0-inf), Geometric Mean",1770 ng·h/mL
same,AUC(0-t),"[1]; po, 75 mg, single oral dose 75 mg, Fasted, N = 9, read-out: AUC(0-t), Arithmetic Mean",1840 ng·h/mL
same,AUC(0-t),"[1]; po, 75 mg, single oral dose 75 mg, Fasted, N = 9, read-out: AUC(0-t), Geometric Mean",1750 ng·h/mL
same,Vd/F,"[1]; po, 75 mg, single oral dose 75 mg, Fasted, N = 9, read-out: Vz/F, Arithmetic Mean",36.6 L
same,Vd/F,"[1]; po, 75 mg, single oral dose 75 mg, Fasted, N = 9, read-out: Vz/F, Geometric Mean",34.8 L
same,half-life,"[1]; po, 75 mg, single oral dose 75 mg, Fasted, N = 9, read-out: t1/2, Arithmetic Mean",< 60 min
same,half-life,"[1]; po, 75 mg, single oral dose 75 mg, Fasted, N = 9, read-out: t1/2, Geometric Mean (converted)",34.1 min
same,Tmax,"[1]; po, 75 mg, single oral dose 75 mg, Fasted, N = 9",40.2 min
same,Cmax,"[1]; po, 75 mg, single oral dose 75 mg, Fed (high-fat breakfast), N = 10, plasma, read-out: Cmax, Arithmetic Mean",269 ng/mL
same,Cmax,"[1]; po, 75 mg, single oral dose 75 mg, Fed (high-fat breakfast), N = 10, plasma, read-out: Cmax, Geometric Mean",263 ng/mL
same,AUC(0-t),"[1]; po, 75 mg, single oral dose 75 mg, Fed, N = 10, read-out: AUC(0-6), Arithmetic Mean",747 ng·h/mL
same,AUC(0-t),"[1]; po, 75 mg, single oral dose 75 mg, Fed, N = 10, read-out: AUC(0-6), Geometric Mean",732 ng·h/mL
same,AUC(0-t),"[1]; po, 75 mg, single oral dose 75 mg, Fed, N = 10, read-out: AUC(0-12), Arithmetic Mean",790 ng·h/mL
same,AUC(0-t),"[1]; po, 75 mg, single oral dose 75 mg, Fed, N = 10, read-out: AUC(0-12), Geometric Mean",767 ng·h/mL
same,AUC(0-t),"[1]; po, 75 mg, single oral dose 75 mg, Fed, N = 10, read-out: AUC(0-24), Arithmetic Mean",792 ng·h/mL
same,AUC(0-t),"[1]; po, 75 mg, single oral dose 75 mg, Fed, N = 10, read-out: AUC(0-24), Geometric Mean",768 ng·h/mL
same,AUC(0-inf),"[1]; po, 75 mg, single oral dose 75 mg, Fed, N = 10, read-out: AUC(0-inf), Arithmetic Mean",792 ng·h/mL
same,AUC(0-inf),"[1]; po, 75 mg, single oral dose 75 mg, Fed, N = 10, read-out: AUC(0-inf), Geometric Mean",768 ng·h/mL
same,AUC(0-t),"[1]; po, 75 mg, single oral dose 75 mg, Fed, N = 10, read-out: AUC(0-t), Arithmetic Mean",767 ng·h/mL
same,AUC(0-t),"[1]; po, 75 mg, single oral dose 75 mg, Fed, N = 10, read-out: AUC(0-t), Geometric Mean",742 ng·h/mL
same,Vd/F,"[1]; po, 75 mg, single oral dose 75 mg, Fed, N = 10, read-out: Vz/F, Arithmetic Mean",120 L
same,Vd/F,"[1]; po, 75 mg, single oral dose 75 mg, Fed, N = 10, read-out: Vz/F, Geometric Mean",118 L
same,half-life,"[1]; po, 75 mg, single oral dose 75 mg, Fed, N = 10, read-out: t1/2, Arithmetic Mean",< 60 min
same,half-life,"[1]; po, 75 mg, single oral dose 75 mg, Fed, N = 10, read-out: t1/2, Geometric Mean (converted)",50.1 min
same,Tmax,"[1]; po, 75 mg, single oral dose 75 mg, Fed, N = 10",75.6 min
same,"% AUCex, Arithmetic Mean",[1]; [5],0.89%
same,"CL/F, Arithmetic Mean",[1]; [5],44.52 L/h
same,"CL/F, Geometric Mean",[1]; [5],42.44 L/h
same,"Cav, Arithmetic Mean",[1]; [5],77.4 ng/mL
same,"Cav, Geometric Mean",[1]; [5],73.6 ng/mL
same,"Cmax, Geometric Mean","[1]; single oral dose 75 mg, Fed (high-fat breakfast), N = 10, plasma",263.2 ng/mL
same,"% AUCex, Arithmetic Mean",[1]; [6],3.5%
same,"AUC(0-12), Geometric Mean",[1]; [6],767.4 ng·h/mL
same,"CL/F, Arithmetic Mean",[1]; [6],100.3 L/h
same,"CL/F, Geometric Mean",[1]; [6],97.59 L/h
same,"Cav, Arithmetic Mean",[1]; [6],33.0 ng/mL
same,"Cav, Geometric Mean",[1]; [6],32.0 ng/mL
same,solubility of C21's Zwitterion,[2],insoluble
